The values below come from article PMC8621570, “Mechanistic Studies of Antibiotic Adjuvants Reducing Kidney’s Bacterial Loads upon Systemic Monotherapy” (Pharmaceutics, 2021).

The nature of series [1]: Peptide self-assembly (critical aggregation concentration) by static light scattering. It counts as physicochemical. The note with it: light scattering in PBS. As to the method: (§1) Peptide self-assembly was determined by static light scattering measurements as described. Hemolysis was determined by measuring hemoglobin leakage from washed human RBCs, as described. Minimal inhibitory concentration (MIC) was determined using the microdilution assay, as described. Bactericidal kinetics were determined by mixing bacteria with rifampin, OAC, or their combinations, as described. Data were obtained from three independent assays performed in duplicate.

For series [2], the system named is E. coli strain AG100. In words: microbe, parasite or virus in culture. It counts as cell-based, Escherichia coli. Conditions: strain AG100. The protocol: (§2) Bacteria:Escherichia coli strains: 25922 and 35218 (ATCC, Manassas, VA, USA), 14182 (clinical isolate), Ag100 and Ag100A [34] (ΔacrAB) are two K-12 isogenic mutantsand the engineered mutant ML-35p. Additional ESKAPE species tested: Klebsiella pneumoniae strains 1287 and 224 (clinical isolates), Acinetobacter baumannii ATCC strain 19606, Pseudomonas aeruginosa ATCC strains 9027 and 27853. Bacteria were grown in Luria–Bertani (LB) broth (0.5% NaCl, 0.5% yeast extract, 1% tryptone, pH = 7), except for E. coli ML-35p that was grown in tryptic-soy broth.
as §1
(§3) The wild-type E. coli strain AG100 and its isogenic ΔacrAB mutant AG100A were used to determine the MIC of OACs and of two known acrAB-TolC substrates: the AMP LL-37 and the macrolide antibiotic erythromycin that are normally inefficient against GNB.

The test system of series [3] is E. coli ΔacrAB mutant AG100A. In words: microbe, parasite or virus in culture. The note with it: isogenic ΔacrAB mutant AG100A. The format is cell-based, Escherichia coli. As to the method: as §2, §1, §3
Series [4] deals with E. coli 25922. Description: Dissipation of the transmembrane potential, DiSC3(5). Conditions: 10 μM, compared to positive control 50 µM C12K-7α8. The format is cell-based, Escherichia coli. As to the method: Inner Membrane Damages: Damage inflicted to the cytoplasmic membrane was assessed using 3,3-dipropylthiadicarbocyanine iodide (DiSC3(5)), a lipophilic potentiometric dye that changes its fluorescence intensity in response to changes in transmembrane potential. Bacteria were grown overnight, diluted and at mid-log were adjusted to O.D = 0.1 (600 nm), centrifuged (10,000 RCF, 5 min), and re-suspended in the assay buffer (5 mM HEPES containing 20 mM glucose, 0.2 mM EDTA, and 50 mM KCl). Then, DiSC3(5) dye was added (to final concentration 4 μM) and incubated at 37 °C for 60 min in the dark to allow dye uptake. An aliquot (180 μL) of the bacterial suspension was placed in a 96-well plate and fluorescence was monitored until baseline stabilization (excitation, 622 nm; emission, 670 nm, monitored using Synergy HT, BioTek Instruments, Winooski, VT, USA). […] Fluorescence was immediately monitored continuously for 30 min. […]
Figure 7 Evidence for proton and ATP leakage across the inner membrane. (a) Dissipation of the transmembrane potential in E. coli 25922 (8.8 ± 1.8 × 10^7 CFU/mL) pre-incubated with DiSC3(5) as determined 15 min after exposure to C14OOc12O (orange) or to C14(ω5)OOc10O (green). […] (b) Intracellular ATP concentrations were determined after 1 h incubation with C14(ω5)OOc10O (green) or C14OOc12O (orange) using E. coli 25922 at 5 × 10^7 CFU/mL. RLU, relative luminescence units.

Series [5] in a line: Maximum tolerated dose. It counts as in vivo, mouse. The note with it: single-dose subcutaneous, uninfected ICR mice, three mice per dose, monitored 7 days. The protocol: Animals: All animal studies were performed using male ICR mice (25 ± 2 gr). The Technion Animal Care and Use committee approved all procedures, care, and handling of animals. Ethics approval codes: IL0800519, IL0640421, IL0550618, IL1811217.
The maximum tolerated dose (MTD) was determined after a single-dose subcutaneous (S.C) administration of C14(ω5)OOc10O using three mice per dose. Animals were monitored for adverse effects for 7 days after injection.

Series [6] in a line: Organ bio-distribution. It counts as in vivo, mouse. Conditions: 3 h post single S.C 12.5 mg/kg, ICR mice, organ homogenates, LC-MS. As to the method:
C14(ω5)OOc10O was subjected to preliminary pharmacokinetics (PK) analysis to determine its plasma concentrations or organ bio-distribution following S.C administration to non-neutropenic pathogen-free mice. OAC quantification was performed by LC-MS as follows: blood was drawn at various time intervals and plasma was separated by centrifugation (5000 RCF, 10 min). Organs were excised and homogenized. Then, OAC was extracted from both plasma and organ homogenates by incubation with 50% acetonitrile: 50% methanol at room temperature with shaking for 30 min, and subsequent centrifugation (5000 RCF, 10 min). Supernatants were diluted two-fold in distilled water and analyzed by LC-MS (ULC ultimate 3000 DIONEX, MS BRUKER Maxis impact). Quantification was based on standard calibration curves, prepared by spiking fresh mice plasma (for PK) or water (for organ bio-distribution) with various amounts of the tested OAC (final concentrations from 2.5 to 50 µg/mL) and subjected to an identical procedure as described above.
Figure 10 Systemic efficacy studies using mouse infection models. (a,b) Data points represent colony forming unit (CFU) counts harvested from infected mice (8 and 10 mice per group, respectively). […]

Where only a bound is given, the exact number is not on record here.

Turning to `CCCCC=CCCCCCCCC(=O)N[C@@H](CCCN)C(=O)N[C@@H](CCCN)C(=O)NCCCCCCCCCC(=O)N[C@@H](CCCN)C(N)=O` [C14(ω5)OOc10O], the “CAC, critical aggregation concentration” value in series [1] is recorded as greater than 100 µM. For the same molecule, the MIC in series [2] is reported as 25 µM. In addition, in series [3], the “MIC, Ag100A” value came out at 6.2 µM. The “Depolarization (dissipation of the transmembrane potential)” value in series [4] is recorded as “only partial depolarization”. For the same molecule, in series [5], the “Maximal tolerated dose (MTD)” value is listed as “higher than 40 mg/kg”. Moreover, in series [6], the “Concentration in liver and kidneys relative to lymph nodes, thighs, bladder, brain or spleen” value is “at least 3 times”.
